In general, IC50 refers to the point on the concentration scale where inhibition reaches its midpoint. Low values mean greater potency in that assay, high ones weaker potency in that assay.

SMILES strings stand for the structures.

This assay addresses T1, α-amylase.
T1 construct: gene AMY2A
In words: EnzChek Ultra Amylase assay kit, enzyme inhibition. It is filed as biochemical.

For the compound `C[C@@H]1O[C@@H](Oc2cc(O)cc(O)c2C(=O)c2cccc(O)c2)[C@H](O)[C@H](O)[C@H]1O` [compound 9, garcimangophenone C], 12.9 µM corresponded to half-maximal inhibition (IC50).

As for `COc1cc2oc3cc(O)c(/C=C/C(C)(C)O)c(O)c3c(=O)c2c(CC=C(C)C)c1OC` [compound 1, 1,3-dihyroxy-6,7-dimethoxy-2-(3-hydroxy-3-methylbut-1-enyl)-8-(3-methylbut-2-enyl)-xanthone], the IC50 stood at 17.8 µM.

For the origin of these results see article PMC9696494, “Garcixanthone E and Garcimangophenone C: New Metabolites from Garcinia mangostana and Their Cytotoxic and Alpha Amylase Inhibitory Potential” (Life, 2022).
